Reference: patent US20100143980A1, “SYNTHESIS OF NOVEL XYLOSIDES AND POTENTIAL USES THEREOF” (priority 2007, published 2010)
Entries after “also recorded” stand apart in the source; their conditions may differ.

Each compound was assayed on CHO pgsA-745 (assay: Priming of glycosaminoglycan synthesis by xylosides, 35S-sulfate incorporation into purified HS/CS). Conditions: 1 uM.
Format: cell-based
Description: To determine whether the xylosides are able to prime the synthesis of glycosaminoglycans in cells in vitro experiments were performed using CHO pgsA-745. The cells were treated with appropriate primers in the presence of 35S—Na2SO4, glycosaminoglycans were purified and analyzed as described below. 1×10^4 cells were plated per well in Ham's/F12 complete growth medium in a 24-well plate. The cells were incubated at 37° C. in a humidified incubator for 24 hours to a confluency of about 50%. The cells were washed with sterile PBS and replaced with 450 μL ham's/F12 containing 10% dialyzed FBS. Solutions containing a specific primer at 100× the final concentration were prepared. 5 μL of appropriate 100× primer were added to various wells to yield a final concentration of 100 μM. 50 μCi of 35S—Na2SO4 was also added to each well as tracer. The 24-well plates were placed back in the 37° C. incubator for 24 hours before the addition of 100 μL 6× pronase solution followed by incubation at 37° C. overnight.
(§1) To determine whether the xylosides are able to prime the synthesis of glycosaminoglycans in cells, in vitro experiments were performed using CHO pgsA-745. The cells were treated with appropriate primers in the presence of 35S—Na2SO4, glycosaminoglycans were purified and analyzed as described below. 1×10^4 cells were plated per well in Ham's/F12 complete growth medium in a 24-well plate. The cells were incubated at 37° C. in a humidified incubator for 24 hours to a confluency of about 50%. The cells were washed with sterile PBS and replaced with 450 uL ham's/F12 containing 10% dialyzed FBS. Serial dilutions of the primers at 100× the final concentration were prepared. 5 uL of appropriate 100× primer were added to various wells to yield a final concentration of 1, 10, 100 and 1000 uM respectively. 50 uCi of 35S—Na2SO4 was also added to each well as tracer. The 24-well plates were placed back in the 37° C. incubator for 24 hours before the addition of 100 uL 6× pronase solution followed by incubation at 37° C. overnight.
The entire contents of the wells were transferred to a microcentrifuge tube and subjected to centrifugation at 16,000×g for 5 minutes. The supernatant was transferred to a fresh tube and half-a-volume of 0.016% Triton X-100 was added. The diluted supernant was loaded on 0.2 mL DEAE-sepharose column pre-equilibrated with 2 mL of 20 mM NaOAc buffer pH 6.0 containing 0.1 M NaCl and 0.01% Triton X-100 and the column was washed with 4 mL of buffer described above. The bound HS/CS was eluted using 1.2 mL elution buffer, 20 mM NaOAc, pH 6.0, containing 1 M NaCl. The extent of priming by the various xyloside primers was evaluated by quantifying the 35S-radioactivity incorporated in to the purified HS/CS elute by liquid scintillation. 50 uL of the various elutes were added to 5 mL of scintillation cocktail and the vials were counted in a scintillation counter in triplicate. The amount of radioactivity corresponds to the total glycosaminoglycan synthesis due to the primer.
as §1, with “a) To” for “To”, “cells” for “cells,”, “^35S—Na2SO4,” for “35S—Na2SO4,”, “37 C” for “37° C.”, “^35S—Na2SO4” for “35S—Na2SO4”, “The 24-well plates were placed back in the 37° C. incubator for 24 hours before the addition of 100 uL 6× pronase solution followed by incubation at 37° C. overnight.” left out

Row | Compound | priming ability relative to the next highest primer at 1 uM
1 | O=S(=O)(c1ccccc1)[C@@H]1OC[C@@H](O)[C@H](O)[C@H]1O [sulfone-phenyl xyloside] | four times that of the next highest priming activity seen at this concentration

Same assay, conditions: 1 uM primer

Row | Compound | GAG priming activity at 1 uM (in words)
2 | O=S(=O)(c1ccccc1)[C@@H]1OC[C@@H](O)[C@H](O)[C@H]1O [sulfone-phenyl xyloside] | better activity at concentration as low as 1 uM; also recorded: highest activity than any of the primers

Same assay, conditions: 10 uM primer

Row | Compound | GAG priming activity at 10 uM (in words)
3 | O=S(=O)(c1ccccc1)[C@@H]1OC[C@@H](O)[C@H](O)[C@H]1O [sulfone-phenyl xyloside] | significantly higher priming activity than other xylosides
4 | OC1COC(n2cc(COc3ccc4c(c3)CCCC4)nn2)C(O)C1O (stereo not shown) [tetrahydronaphthyl] | significantly higher priming activity than other xylosides
5 | O[C@@H]1[C@@H](O)[C@H](Sc2ccccc2)OC[C@H]1O [thiophenyl, beta-D-thiophenyl xyloside, reference compound] | significantly higher priming activity than other xylosides

Same assay, conditions: 100 uM

Row | Compound | priming activity relative to the thio-phenyl and thio-pyridyl primers
6 | O=S(=O)(c1ccccc1)[C@@H]1OC[C@@H](O)[C@H](O)[C@H]1O [sulfone-phenyl xyloside] | about 60%

Same assay, conditions: CHO pgsA-745 cells; concentration not given

Row | Compound | GAG priming ability (in words, relative to the comparator named)
7 | OC1COC(n2ccnn2)C(O)C1O (stereo not shown) [compound 1] | primed slightly better than the well known β-O-naphthyl xyloside
8 | OC1COC(n2ccnn2)C(O)C1O (stereo not shown) [compound 2] | prime GAGs albeit in lesser quantities than their respective β-anomers
9 | OC1COC(n2cc(COc3cccnc3)nn2)C(O)C1O (stereo not shown) [compound 6] | prime GAGs albeit in lesser quantities than their respective β-anomers
10 | OC1COC(n2cc(COc3ccccc3)nn2)C(O)C1O (stereo not shown) [compound 8] | prime GAGs albeit in lesser quantities than their respective β-anomers
11 | COc1ccc(OCc2cn(C3OCC(O)C(O)C3O)nn2)cc1 (stereo not shown) [compound 9] | marginal effect on the priming ability
12 | COc1ccc(OCc2cn(C3OCC(O)C(O)C3O)nn2)cc1 (stereo not shown) [compound 10] | prime GAGs albeit in lesser quantities than their respective β-anomers
13 | OC1COC(n2cc(COc3ccc(-c4ccc(Br)cc4)cc3)nn2)C(O)C1O (stereo not shown) [compound 17] | decreased
14 | OC1COC(n2cc(COc3ccc4cc(Br)ccc4c3)nn2)C(O)C1O (stereo not shown) [compound 19] | completely abolished the priming activity
15 | OC1COC(n2cc(COc3ccc4c(c3)CCCC4)nn2)C(O)C1O (stereo not shown) [compound 20] | did not significantly influence priming activity
16 | OC1COC(n2cc(COc3cc4ccccc4c4ccccc34)nn2)C(O)C1O (stereo not shown) [compound 21] | primed less GAG chains than the less hydrophobic xyloside (Table 1A: compound 18) did
17 | OC1COC(n2cc(COCc3ccccc3)nn2)C(O)C1O (stereo not shown) [compound 23] | prime GAGs albeit in lesser quantities than their respective β-anomers
18 | OC1COC(n2cc(COCc3ccc(F)cc3)nn2)C(O)C1O (stereo not shown) [compound 24] | down regulates the priming ability
19 | OCc1cccc(COCc2cn(C3OCC(O)C(O)C3O)nn2)c1 (stereo not shown) [compound 25] | down regulates the priming ability
20 | OC1COC(n2cc(-c3ccccc3)nn2)C(O)C1O (stereo not shown) [compound 29] | decreased the priming ability by two fold
21 | COc1ccccc1-c1cn(C2OCC(O)C(O)C2O)nn1 (stereo not shown) [compound 32] | primed nearly two times the amount of GAG chains compared to the unsubstituted xyloside 29
22 | COc1ccc(-c2cn(C3OCC(O)C(O)C3O)nn2)cc1 (stereo not shown) [compound 33] | primed one-half the amount of GAG chains compared to the unsubstituted xyloside 29
23 | COc1cc(OC)cc(-c2cn(C3OCC(O)C(O)C3O)nn2)c1 (stereo not shown) [compound 34] | showed decrease priming compared to the unsubstituted xyloside 29

Same assay, conditions: fold less efficient than compound 7

Row | Compound | priming efficiency compared to phenyl substituted xyloside compound 7
24 | OC1COC(n2cc(COc3cccnc3)nn2)C(O)C1O (stereo not shown) [compound 5] | 10 times

Same assay, conditions: relative to unsubstituted phenyl xyloside

Row | Compound | loss of priming activity by para nitro substitution
25 | O=[N+]([O-])c1ccc(OCc2cn(C3OCC(O)C(O)C3O)nn2)cc1 (stereo not shown) [compound 15] | approximately 30%

Each compound was assayed on CHO pgsA-745 (assay: Composition of HS and CS in the primed glycosaminoglycans (Chondroitinase AC digestion)). Conditions: share of HS in total GAG.
Format: cell-based
Description: To determine the composition of the HS and CS in the glycosaminoglycans synthesized, a small aliquot of the elute (300 uL) was diluted 10-fold and digested using Chondroitinase AC. The sample was subjected to precipitation to remove the disaccharide in the presence of cold chondroitin sulfate A and scintillation counted. This gives the amount of HS primed on the xylosides and the difference in the radioactivity corresponds to the amount of chondroitin sulfate in the purified glycoaminoglycan elute.
b) To determine the composition of the HS and CS in the glycosaminoglycans synthesized, a small aliquot of the elute (300 uL) was diluted 10-fold and digested using Chondroitinase AC. The sample was subjected to precipitation to remove the disaccharide in the presence of cold chondroitin sulfate A and scintillation counted. This gives the amount of HS primed on the xylosides and the difference in the radioactivity corresponds to the amount of chondroitin sulfate in the purified glycoaminoglycan elute.

Row | Compound | composition of HS in primed glycosaminoglycans (in words) | composition of HS in primed glycosaminoglycans
26 | OC1COC(n2cc(COc3ccc(F)cc3)nn2)C(O)C1O (stereo not shown) [fluoro-substituted derivative] | Half | –
27 | OC1COC(n2cc(COc3ccccc3)nn2)C(O)C1O (stereo not shown) [triazole-O-phenyl] | Half | –
28 | C-(2-naphthol)-xyloside | – | −72%
